In test [1] the test system is apoptosis-related proteins. Kind of test: Western blot of apoptosis-related proteins. It counts as cell-based, human. To be noted: Molt 4 cells, time-dependent. Here is the method:
(§1) Oxidative stress is manifested by ROS overexpression and cannot be balanced by the available antioxidant machinery. Compound 1 of the present invention can damage the integrity of mitochondria, which are the major production sites of the superoxide anion, […]. The induction of the intracellular formation of ROS by compound 1 was determined with a carboxyl derivative of fluorescein, carboxy-H2DCFDA dye using flow cytometric analysis. […] In addition, ROS generation could induce ER stress leading to mitochondria-related apoptosis. To further investigate if ER stress is involved in the apoptotic effect induced by compound 1, Western blot analysis was used to determine the expression of ER stress-related proteins. […] Furthermore, the effect of compound 1 on the release of intracellular Ca^2+, was evaluated using fluorescent calcium indicator, Fluo 3. […] In FIG. 4(D), the induction of the typical executor caspases-3 and -7, and γH2AX, was also observed using Western blot analysis. To confirm the induction of DNA damage by compound 1 in Molt 4 cells, a comet assay under neutral electrophoresis condition was utilized. Thus, the effect of compound 1 (0.0625 μg/mL) at different time intervals (0, 3, 6 and 9 hours) on the level of nuclear DNA integrity was determined. […]
Background: In western blotting, separated proteins are transferred to a membrane and probed.

Test [2] concerns ER stress-related proteins. Kind of test: Western blot of ER stress-related proteins. It counts as cell-based, human. To be noted: Molt 4 cells, time-dependent. As to the method:
as §1

Test [3] deals with T1, Hsp90 protein (PDB ID: 1YET) (Homo sapiens, UniProt P07900).
T1 construct: Compound 1 could be docked to the N-terminal domain of Hsp90
The experiment in a line: Molecular docking (Autodock 4.2). The source says: It is known that mitochondria are critical intracellular loci of ROS production and ROS exposure can lead to the […] opening. The antioxidant, microsomal GST1, in the inner mitochondrial membrane can interact with the mitochondrial permeability transition (MPT) regulator proteins, such as ANT and/or CypD, to form a MPT pore contributing to mitochondria-mediated cell death. In addition, mitochondrial homeostasis of tumor cells is regulated by an organelle-specific Hsp90 chaperone network.

In test [4] the test system is Molt 4 cells. Kind of test: Annexin V/PI apoptosis assay. It counts as cell-based, human. The following applies: Molt 4 cells, 0.0625, 0.125 and 0.25 μg/mL, 24 hours, dose-dependent. As to the method:
Annexin V/Propidium Iodide (PI) Apoptosis Assay:
The externalization of phosphatidylserine (PS) and membrane integrity were quantified using an annexin V-fluorescein isothiocyanate (annexin V-FITC) staining kit. In brief, 10^6 cells were grown in 35 mm diameter plates and were labeled with annexin V-FITC (10 μg/mL) and PI (20 μg/mL) prior to harvesting. After labeling, all plates were washed with a binding buffer and harvested. Cells were resuspended in the binding buffer at a concentration of 2×10^5 cells/mL before analysis by flow cytometer FACS-Calibur (Becton-Dickinson, San Jose, Calif., U.S.A.) and CellQuest software. Approximately 10,000 cells were counted for each determination.

For test [5], the system named is Molt 4 cells. The experiment in a line: Neutral comet assay for DNA double-strand breaks. It counts as cell-based, human. To be noted: 0.0625 μg/mL, 0, 3, 6 and 9 hours. Here is the method: Neutral Comet Assay for Detection of DNA Double-Strand Breaks (DSBs):
The assay was carried out using a CometAssay™ Kit (Trevigen, Gaithersburg, Md., U.S.A.) following the manufacturer's protocol for the neutral Comet assay. Briefly, cancer cells (2×10^5 cells/mL) were treated with compound 1 (0.0625 μg/mL) at the indicated time. Cells were combined with 1% low melting point agarose at a ratio of 1:10 (v/v) and immediately 75 μL of the mixture was pipetted onto CometSlide™ and allowed to set at 4° C. in the dark. The slides were immersed in an ice-cold lysis solution (Trevigen) for 30 to 60 minutes. […] The fluorescence images were analyzed using the TriTek Comet Image program to circumscribe the “head” and the “tail” regions of each comet and the integrated fluorescence values of each defined area were recorded. The comet length was measured from the trailing edge of the nucleus to the leading edge of the tail. […] The results were expressed as mean±standard deviation (SD) (*p<0.05).
Oxidative stress is manifested by ROS overexpression and cannot be balanced by the available antioxidant machinery. […] The induction of the intracellular formation of ROS by compound 1 was determined with a carboxyl derivative of fluorescein, carboxy-H2DCFDA dye using flow cytometric analysis. […]

The next test deals with U937. Kind of test: MTT assay, cytotoxic effect on U937. The following applies: Homo sapiens, U-937; U937, molar value in text. It counts as cell-based. The text has this: The cell lines were obtained from the American Type Culture Collection (ATCC, Manassas, Va., U.S.A.) or the Japanese Collection of Research Biosources (JCRB) Cell Bank (Japan). […] Antibodies against XIAP, NFκB (p65), GADD, CDK 4, HSF 1, ATF 6 and β-tubulin were obtained from Santa Cruz Biotechnology (Santa Cruz, Calif., U.S.A.). The Hybond ECL transfer membrane and ECL Western blotting detection kits were obtained from Amersham Life Sciences (Amersham, U.K.).
Several cancer cell lines including leukemia K562, Molt 4, and HL 60 cells, prostate cancer LNCaP cells, colon cancer DLD-1 cells and breast cancer T-47D cells were used to evaluate the antiproliferative activity (referring to Table 2).
(Formazan colour is commonly taken as a measure of viable cells.)

Another test concerns the target T2, human topoisomerase II (Homo sapiens, UniProt P11388).
T2 construct: purchased Topogen
Kind of test: Assay of topoisomerase II catalytic inhibitors and poisons (cell-free pHOT1 DNA relaxation/cleavage). It counts as biochemical. The following applies: cell-free system; read-out: Topo II activity IC50 (converted). Here is the method:
Assay of Topoisomerase II Catalytic Inhibitors and Poisons:
Reactions were terminated by adding 2 μL of 10% SDS to facilitate trapping the enzyme in a cleavage complex, followed by the addition of 2.5 μL of proteinase K (50 μg/mL) to digest the bound protein (incubated at 37° C. for 15 minutes) and finally by adding 0.1 volume of the sample loading dye. The DNA products were analyzed via electrophoresis through vertical 2% agarose gels at 2 voltage/cm in 0.5×TAE buffer. Gels were stained with ethidium bromide (EtBr) and photographed using an Eagle Eye II system (Stratagene, La Jolla, Calif., U.S.A.). The quantitative analysis of the DNA Topo II activity was performed.

By IC50 is commonly meant the concentration needed to halve the response being measured.

Molecules are shown by their SMILES. Where only a bound is given, the exact number is not on record here.

T2 sequence (P11388 whole entry): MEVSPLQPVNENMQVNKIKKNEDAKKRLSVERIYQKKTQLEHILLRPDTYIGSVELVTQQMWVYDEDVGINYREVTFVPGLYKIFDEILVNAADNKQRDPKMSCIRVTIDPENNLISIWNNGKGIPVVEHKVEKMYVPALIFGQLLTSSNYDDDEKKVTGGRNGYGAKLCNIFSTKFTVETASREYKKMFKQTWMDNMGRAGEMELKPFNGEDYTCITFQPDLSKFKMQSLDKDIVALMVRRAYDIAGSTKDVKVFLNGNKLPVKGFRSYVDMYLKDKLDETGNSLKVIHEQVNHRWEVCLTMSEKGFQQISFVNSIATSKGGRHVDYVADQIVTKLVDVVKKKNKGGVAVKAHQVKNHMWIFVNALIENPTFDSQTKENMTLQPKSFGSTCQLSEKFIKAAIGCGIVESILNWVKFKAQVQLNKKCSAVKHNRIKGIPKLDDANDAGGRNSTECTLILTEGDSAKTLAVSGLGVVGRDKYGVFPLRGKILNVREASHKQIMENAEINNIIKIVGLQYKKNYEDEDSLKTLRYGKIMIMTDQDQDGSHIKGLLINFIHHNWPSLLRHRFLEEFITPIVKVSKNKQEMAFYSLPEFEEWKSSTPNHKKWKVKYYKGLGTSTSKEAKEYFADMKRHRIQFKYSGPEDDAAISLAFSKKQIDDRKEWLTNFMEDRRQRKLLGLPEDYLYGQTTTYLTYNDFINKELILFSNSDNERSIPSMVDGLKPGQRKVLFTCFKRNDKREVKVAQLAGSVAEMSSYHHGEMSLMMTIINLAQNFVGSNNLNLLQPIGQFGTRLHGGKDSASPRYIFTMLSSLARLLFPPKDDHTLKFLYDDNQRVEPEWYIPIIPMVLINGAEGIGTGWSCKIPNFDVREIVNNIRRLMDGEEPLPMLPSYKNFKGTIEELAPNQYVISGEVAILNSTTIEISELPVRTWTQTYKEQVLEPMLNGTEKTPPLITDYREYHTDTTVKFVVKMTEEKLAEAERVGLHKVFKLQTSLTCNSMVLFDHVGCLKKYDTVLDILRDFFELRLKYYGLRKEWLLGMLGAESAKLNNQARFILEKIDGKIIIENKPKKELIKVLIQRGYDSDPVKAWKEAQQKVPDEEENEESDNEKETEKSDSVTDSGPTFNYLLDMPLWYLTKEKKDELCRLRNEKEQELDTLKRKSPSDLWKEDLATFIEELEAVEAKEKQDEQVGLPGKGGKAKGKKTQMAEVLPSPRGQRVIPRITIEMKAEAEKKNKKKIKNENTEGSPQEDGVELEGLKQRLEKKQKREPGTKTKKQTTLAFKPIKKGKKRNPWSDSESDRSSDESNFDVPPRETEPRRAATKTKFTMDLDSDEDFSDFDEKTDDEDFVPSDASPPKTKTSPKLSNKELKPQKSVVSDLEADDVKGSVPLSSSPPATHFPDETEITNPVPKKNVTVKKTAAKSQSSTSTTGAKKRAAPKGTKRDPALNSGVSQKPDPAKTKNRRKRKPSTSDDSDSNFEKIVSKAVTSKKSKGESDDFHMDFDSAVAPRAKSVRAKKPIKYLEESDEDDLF

For `CC[C@@]1(C)CCC[C@]2(C)[C@H]3C[C@@H](OC(=O)C[C@@H](C)O)[C@]4(C)[C@@H](C=O)C(C(C)=O)=CC[C@H]4[C@]3(C)CC[C@@H]12` (relative stereo) [Compound 1, 12β-(3′β-hydroxybutanoyloxy)-20,24-dimethyl-24-oxo-scalara-16-en-25-al], in test [1], the “Cleavage of apoptosis-related proteins” value was “PARP, caspases-8 and -9 cleavages were significantly increased in a time-dependent manner”. The “Expression of ER stress-related proteins” value in test [2] was “promoted the levels of Bip, Chop, Grp 94 and the activation and cleavage of ATF 6 but suppressed the levels of PERK and IRE 1”. Further, in test [3], the “Potency of Hsp90 inhibition constant relative to 17-AAG” value is reported as over 1430 folds. In addition, the “Apoptotic population (annexin-V/PI)” value in the test with Molt 4 cells [4] is on record as “increase in the apoptotic population”. For the same compound, the “DNA migration (comet tail, DSBs)” value in the test with Molt 4 cells [5] was “increased the degree of DNA migration”. The results for the IC50 in the test with U937 and at human topoisomerase II were 2.08 nM and 3950 nM, respectively.

These data come from patent US10314847B2, “Scalarane sesterterpenoid, pharmaceutical composition and topoisomerase II and Hsp90 inhibitor for treating cancer, and use and preparation method thereof” (NATIONAL DONG HWA UNIVERSITY, priority 2017, dated 2019).
